From patent US9018006B2, “Stable Tregs and related materials and methods” (The University of Toledo, priority 2010, dated 2015)

Columns and labels:
[1] = system: Naïve CD4+ Foxp3/GFP− cells; assay: Two-phase induction/expansion of iTregs, Method 1 (anti-CD3/anti-CD28 plus inhibitor, then rIL-2); assay type: cell-based, mouse
T effector (Teff) cells = settings: Teff:Treg 1:1, after repeated re-stimulation
iTreg cells = assay: Stability of Foxp3 expression of induced iTregs after re-stimulation with anti-CD3/anti-CD28 mAbs; assay type: cell-based, mouse; settings: after repeated re-stimulation with anti-CD3/anti-CD28 mAbs; nTreg cells 80%
Protocol: FIGS. 4A-4B. Stability of Foxp3 expression and suppressor function of the two-phase induced iTreg T cells. The nTreg cells were isolated from spleen of naïve mice (left panel). Naïve mouse CD4^+Foxp3/GFP^− cells (1×10^6/ml) cultured with APCs were stimulated with anti-CD3 mAb in the presence of 5 ng/ml TGF-β, 5 μg/ml anti-IL-2 mAb (S4B6), or 100 nM CP-690,550 for 3 days. After washing, fresh medium was supplemented with 10 units/ml rIL-2 and cultured for additional 3 days (total 6 day culture). All these 4 populations were subsequently re-stimulated with anti-CD3 mAb/anti-CD28 mAb for 3 days and examined by FACscan for Foxp3 expression (FIG. 4A). Purified naive CD4^+Foxp3/GFP^− cells labeled with CFSE were used as T-effector (Teff) cells and mixed with re-stimulated nTreg cells or re-stimulated CP-690,550-induced iTreg cells. Proliferation was measured by the number of Teff cell divisions (FIG. 4B).
Furthermore, the stability of Foxp3 expression of anti-IL-2 mAb-(S4B6) or Jak3 inhibitor (CP-690,550)-induced iTregs was compared with TGF-β-induced iTregs.

transplant patients = settings: compared with OKT3 mAb; cited from earlier work

O=C(N/N=C/c1coc2ccccc2c1=O)c1cccnc1 [Stat5 inhibitor]
naïve CD4+ Foxp3/GFP− cells converted into CD4+CD25+Foxp3/GFP+ iTregs ([1]; 100 ng/ml Stat5 inhibitor first 3 days, then rIL-2 3 days, untreated controls 7%): 36%

C[C@@H]1CCN(C(=O)CC#N)C[C@@H]1N(C)c1ncnc2[nH]ccc12 [CP-690,550]
suppressor function of induced iTreg cells (T effector (Teff) cells): maintained very potent suppressor function | induced iTreg cells that maintained Foxp3 expression (iTreg cells): 75% | Foxp3 expression during proliferation (cell divisions) ([1]; 6-day culture): maintained similar levels of Foxp3 expression | number of CD4+CD25+Foxp3/GFP+ cells on day 6 of culture ([1]; from initial 0.05×10^6 CD4+ Foxp3/GFP− cells): 0.4×10^6 cells | expansion in the number of iTreg cells ([1]; initial 3-day exposure, day 6 of culture): 8 fold

OKT3 mAb: mouse anti-human CD3 agonist mAb
adverse effects in patients (transplant patients): elicited the release of many cytokines causing flu-like symptoms

TGF-β
induced iTreg cells that maintained Foxp3 expression (iTreg cells): 4.3%
